Test results taken from article PMC12841663, “Antiprotozoal Potential of Cultivated Geranium macrorrhizum Against Giardia duodenalis, Trichomonas gallinae and Leishmania infantum” (International Journal of Molecular Sciences, 2026).
In brackets after ≈: the same amount, converted by molar mass. Entries after “also recorded” stand apart in the source; their conditions may differ.

Tests used:
[1] = system: G. duodenalis trophozoites; experiment: Anti-Giardia activity assay (MTT viability); format: cell-based; conditions: pure compounds
Experimental: Anti-Giardia (AG) activity assays were conducted on G. duodenalis trophozoites from the ATCC® 30957 strain (assemblage A), using flat-bottom microwell plates in quadruplicate. […] Incubation was carried out for 24 h at 37 °C. EOs and pure compounds were solved in DMSO (Sigma, Madrid, Spain) (<1% final concentration). […] Trophozoites/promastigotes viability was assessed using the modified MTT colorimetric assay, as described previously in the literature, with results further validated by microscopic examination. The plate was analyzed in a spectrophotometer at a wavelength of 570 nm. The percentage of antiparasitic activity was calculated as growth inhibition, using the following formula: % AT = 100 - [(Ap - Ab) ÷ (Ac - Ab)] × 100, where Ap is the absorbance of the tested product, Ab the absorbance of the blank and Ac the absorbance of the control wells (culture without treatment). […] Metronidazole (Acros Organics, Madrid, Spain) served as a reference compound for anti-Giardia activity and Anti-Trichomonas activity and amphotericin B for anti-Leishmania activity. Data was analyzed using STATGRAPHICS Centurion XIX ([…].com) (Statgraphics Technologies, Inc., The Plains, VA, USA). The mammalian cells and trophozoites viability were tested with each compound in a dose-response experiment to calculate their relative potency (CC50 or IC50 value, respectively).

T. gallinae trophozoites [2] = experiment: Morphological evaluation by light microscopy (Diff-Quik), T. gallinae; format: cell-based, Trichomonas gallinae; conditions: germacrone 100 µg/mL, metronidazole 10 µg/mL; 0.5 and 48 h; control DMSO 1%
Text: At each time point, quadruplicates were assigned per condition: growth control, germacrone, and the corresponding positive control (metronidazole or amphotericin B). For microscopy, quadruplicate wells corresponding to the same condition/time point were pooled prior to centrifugation to obtain sufficient biomass and a representative pellet for smear preparation. Pooled samples per condition/time point were centrifuged, resuspended in FBS and spread onto microscope slides. Once dried, samples were fixed and stained with Diff-Quik (Medion Diagnostic AG, […], Switzerland) following the manufacturer's instructions. Additionally, three wells per condition (triplicates) were used for the MTT assay, with absorbance measured by spectrophotometry after 48 h. Morphological changes were analyzed using light microscopy. Experiments were performed as independent biological replicates on different plates, and one Diff-Quik stained smear was obtained per condition and time point per biological replicate. For morphometric analysis, a total of 30 trophozoites per condition and time point were measured across the independent biological replicates and were selected by consecutive sampling during a predefined serpentine (zig-zag) scan across the preparation. Up to two eligible trophozoites per field (intact, well-focused and non-overlapping) were measured in sequential fields until n = 30 was reached, avoiding subjective selection of “representative” cells. Overlapping, partially visible, out-of-focus, edge-of-field, or debris-obscured trophozoites were excluded a priori. Trophozoites were photographed using a researcher's mobile phone mounted to the microscope ocular. Calibration was performed at the same magnification using a stage micrometre and applied in ImageJ v. 1.54d. One Diff-Quik stained smear was obtained per condition/time point per biological replicate Cell length, cell width, cell surface, nuclear length, nuclear width, axoneme (only Giardia), and length of axostyle (only T. gallinae) were measured with ImageJ software, and the data were recorded in an Excel database for statistical analysis. The Shapiro-Wilk test was used to assess the normality of the morphological variables. When data followed a normal distribution, Student's t-test was applied; otherwise, non-parametric tests, such as the Mann-Whitney U test, was used. Values of p < 0.05 were considered significant. For the morphological analysis, the mean, standard deviation, median, and interquartile range were calculated using SPSS version 20 (IBM Corp., Armonk, NY, USA).

[3] = Cytotoxicity of pure compounds on Vero cells (MTT); format: cell-based; conditions: African green monkey
Experimental: African green monkey kidney cells (Vero cells) were maintained in Dulbecco’s modified Eagle’s minimal essential medium (DMEM) (Thermo Fisher Scientific, Waltham, MA, USA) supplemented with 10% FBS and 1% Pen-Strep at 37 °C under a humidified atmosphere of 5% CO2/95% air.
Cells seeded in 96-well flat-bottom microplates with 100 μL medium per well (initial densities 10^4 cells per well) were exposed for 48 h to serial dilutions (100, 75, 50, 25, 10 and 1 µg/mL) of the tested compounds in DMSO (<1% final concentration). Cell viability was analyzed by the MTT colorimetric assay method, and the purple-colored formazan precipitate was dissolved with 100 μL of DMSO [23].
Data was analyzed using STATGRAPHICS Centurion XIX (https://www.statgraphics.com) (Statgraphics Technologies, Inc., The Plains, VA, USA). The mammalian cells and trophozoites viability were tested with each compound in a dose–response experiment to calculate their relative potency (CC50 or IC50 value, respectively). IC50 (μg/mL) expresses the dose of EOs, extracts or pure compounds needed to produce 50% mortality of trophozoites, while CC50 (μg/mL) expresses the dose of compounds necessary to produce 50% mortality of Vero cells.

[4] = system: G. duodenalis trophozoites; experiment: Morphological evaluation by light microscopy (Diff-Quik), G. duodenalis; format: cell-based, Giardia duodenalis; conditions: germacrone 100 µg/mL, metronidazole 100 µg/mL; 0.5 and 48 h; control DMSO 1%
Experimental: Each well contained 435 μL of culture medium and 15 μL of the test or control compounds at the above-mentioned concentrations. The chamber included: two wells for growth control (0.5 h, 48 h), two for germacrone (0.5 h, 48 h), and two for metronidazole (0.5 h, 48 h). Incubation was performed at 37 °C. At each time point, the medium was removed, wells were dried, fixed, and stained with Diff-Quik. Morphological changes were analyzed using light microscopy. Experiments were performed as independent biological replicates on different plates, and one Diff-Quik stained smear was obtained per condition and time point per biological replicate. For morphometric analysis, a total of 30 trophozoites per condition and time point were measured across the independent biological replicates and were selected by consecutive sampling during a predefined serpentine (zig-zag) scan across the preparation. Up to two eligible trophozoites per field (intact, well-focused and non-overlapping) were measured in sequential fields until n = 30 was reached, avoiding subjective selection of “representative” cells. Overlapping, partially visible, out-of-focus, edge-of-field, or debris-obscured trophozoites were excluded a priori. Trophozoites were photographed using a researcher's mobile phone mounted to the microscope ocular. Calibration was performed at the same magnification using a stage micrometre and applied in ImageJ v. 1.54d. One Diff-Quik stained smear was obtained per condition/time point per biological replicate Cell length, cell width, cell surface, nuclear length, nuclear width, axoneme (only Giardia), and length of axostyle (only T. gallinae) were measured with ImageJ software, and the data were recorded in an Excel database for statistical analysis. The Shapiro-Wilk test was used to assess the normality of the morphological variables. When data followed a normal distribution, Student's t-test was applied; otherwise, non-parametric tests, such as the Mann-Whitney U test, was used. Values of p < 0.05 were considered significant. For the morphological analysis, the mean, standard deviation, median, and interquartile range were calculated using SPSS version 20 (IBM Corp., Armonk, NY, USA).

T. gallinae trophozoites [5] = system: T. gallinae trophozoites; parameters: method as in PMID 36157195; conditions: cited from earlier work

With `Cc1ncc([N+](=O)[O-])n1CCO` [Met, metronidazole, reference compound] the IC50 [1] was 4.4 µg/mL (≈ 25.7 µM), the “axostyle length vs control” value (T. gallinae trophozoites [2]) was “decreased at 0.5 h; also recorded: undetectable in most metronidazole-treated trophozoites by 48 h” and the “cell length vs control” value (T. gallinae trophozoites [2]) was “initial increase at 0.5 h, followed by a reduction at 48 h”. For the same molecule, the “cell surface area vs control” value (T. gallinae trophozoites [2]) was “significant reduction only at 48 h”, the “nuclear length vs control” value (T. gallinae trophozoites [2]) was “decreased with metronidazole” and the “nuclear width vs control” value (T. gallinae trophozoites [2]) was “diminished at 0.5 h; also recorded: further decreased”. For the same molecule, the CC50 at 48 h [3] was greater than 100 µg/mL, the “axoneme length vs control” value [4] was “decreased at 0.5 h; also recorded: continued to decrease” and the “cell length vs control” value [4] was “significant reductions at 30 min”. The “cell surface area vs control” value [4] was “reduction in cell surface area relative to the control within 0.5 h”, the “cell width vs control” value [4] was “decrease in cell width at 0.5 h” and the “nuclear length (left and right) vs control” value [4] was “No effects”. For the same molecule, the “nuclear width vs control” value [4] was “reduction at 0.5 h, followed by an increase at 48 h” and the “T. gallinae IC50” value (T. gallinae trophozoites [5]) was 1.0 (0.8–1.1) [23] µg/mL.
